Experimental data as given in US8673850B2, “PCSK9 inhibitors and methods of use thereof” (Institut de Recherches Cliniques de Montreal, priority 2008, dated 2014).

Key:
AnxA2 [1] = assay: 5-Azacytidine treatment of HepG2 cells, AnxA2 expression; format: cell-based, human
From the text: (§1) Western blotting experiments were made on samples that were reduced in Laemmli buffer, heated and resolved on 8% glycine SDS-PAGE gels. Separated proteins were then electro-transferred onto nitrocellulose, and probed with HRP-conjugated anti-V5 or anti-HA tags or with primary antibodies. […] Quantitation of band intensity was done with the ImageJ™ software version 1.37 (Wayne Rasband, National Institutes of Health, Bethesda, Md.).
(§2) For RNA preparation and cDNA synthesis cells were washed with PBS and incubated with Trizol reagent (Life Technologies). Total RNA was extracted and resuspended in ˜30 μL of water. Isolated RNA integrity was electrophoretically verified by ethidium bromide staining and optical density. Typically, 250 ng of total RNA were used for cDNA synthesis in a total volume of 20 μL using SuperScript™ II reverse transcriptase, 25 μg/mL oligo(dT)12-18, 0.5 mmol/L 2′-deoxynucleoside 5′-triphosphates, and 40 U of RNaseOUT™, all products from Life Technologies, and used according to the recommendations of the manufacturer. All primers were designed using Primer3™ software and optimized for each amplification. […] Each reaction was in a final volume of 25 μL using the QuantiTec SYBR Green™ PCR master mix from Qiagen, cDNA dilutions that gave threshold cycle (Ct) values for both amplifications, and primers for ribosomal-protein genes or the chosen target gene. […]

PCSK9 = assay: 5-Azacytidine treatment of HepG2 cells, PCSK9 expression; format: cell-based, human
From the text: as §1, §2

LDLR [2] = assay: 5-Azacytidine treatment of HepG2 cells, LDLR expression; format: cell-based, human
From the text: as §1, §2

HMG-CoA reductase = assay: 5-Azacytidine treatment of HepG2 cells, HMG-CoA reductase expression; format: cell-based, human; conditions: HepG2, qPCR
Experimental: For RNA preparation and cDNA synthesis cells were washed with PBS and incubated with Trizol reagent (Life Technologies). Total RNA was extracted and resuspended in ˜30 μL of water. Isolated RNA integrity was electrophoretically verified by ethidium bromide staining and optical density. Typically, 250 ng of total RNA were used for cDNA synthesis in a total volume of 20 μL using SuperScript™ II reverse transcriptase, 25 μg/mL oligo(dT)12-18, 0.5 mmol/L 2′-deoxynucleoside 5′-triphosphates, and 40 U of RNaseOUT™, all products from Life Technologies, and used according to the recommendations of the manufacturer. All primers were designed using Primer3™ software and optimized for each amplification. Each cDNA sample was submitted to 2 polymerase chain reaction (PCR) amplifications: one for normalizing ribosomal-protein gene (S14 for human and S16 for mouse cDNAs) and the other for the gene of interest, each in triplicate. Each reaction was in a final volume of 25 μL using the QuantiTec SYBR Green™ PCR master mix from Qiagen, cDNA dilutions that gave threshold cycle (Ct) values for both amplifications, and primers for ribosomal-protein genes or the chosen target gene. The Mx3500P™ system from Stratagene was used to perform and analyze the QPCR reactions, using S14 amplifications as normalizers and control samples as calibrators^25.35.

Annexin II = conditions: LNCaP cells; cited from earlier work
AnxA2 [3] = assay: shRNA knockdown in HuH7 cells, AnxA2 Western blot; format: cell-based, human; conditions: HuH7, stable or transient transfection, vs control shRNA
Experimental: (§3) To silence human AnxA2, a 29mer pRS-shRNA was used: (sh3, […] (SEQ ID NO: 105)) (Origene). The control pRS-shGFP vector [shCtl] contained a non-effective 29mer shGFP cassette.
(§4) HepG2, HuH7, COS-1, BSC40 and HEK293 cell were grown in Dulbecco's modified Eagle's medium (DMEM) with 10% fetal bovine serum (FBS; Gibco), whereas CHO-K1 and CHO-K1 mutant Pgsd-677 cells that lack heparan sulfate proteoglycans^26 were grown in Ham's F12:DMEM (50:50) media with 10% FBS. Y1 mouse adrenal cells were grown in F12K medium with 15% horse serum and 2.5% FBS. All cells were maintained at 37° C. under 5% CO2. At 80-90% confluence, HuH7 and CHO-K1 cells were transiently transfected with Lipofectamine™ 2000 (Invitrogen), HEK293 cells were transfected with Effectene™ (Qiagen) and HepG2 cells were transfected with Fugene™ HD (Roche). […] For analysis of the various AnxA2 mutants in HEK293 cells, 24 h post-transfection, the cells were washed and then incubated for another 24 h in complete medium containing 50 μM of the proteasome inhibitor ALLN (Calbiochem). […]
(§5) Western blotting experiments were made on samples that were reduced in Laemmli buffer, heated and resolved on 8% glycine SDS-PAGE gels. […] Quantitation of band intensity was done with the ImageJ™ software version 1.37 (Wayne Rasband, National Institutes of Health, Bethesda, Md.).

LDLR [4] = assay: shRNA knockdown in HuH7 cells, LDLR Western blot; format: cell-based, human; conditions: HuH7, stable or transient transfection, vs control shRNA
Experimental: as §3, §4, §5

LDLR [5] = assay: LDLR Western blot of transfected HEK293 cells; format: cell-based, human; conditions: HEK293 cells (negligible PCSK9), with or without p11
Experimental: HepG2, HuH7, COS-1, BSC40 and HEK293 cell were grown in Dulbecco's modified Eagle's medium (DMEM) with 10% fetal bovine serum (FBS; Gibco), whereas CHO-K1 and CHO-K1 mutant Pgsd-677 cells that lack heparan sulfate proteoglycans^26 were grown in Ham's F12:DMEM (50:50) media with 10% FBS. Y1 mouse adrenal cells were grown in F12K medium with 15% horse serum and 2.5% FBS. All cells were maintained at 37° C. under 5% CO2. At 80-90% confluence, HuH7 and CHO-K1 cells were transiently transfected with Lipofectamine™ 2000 (Invitrogen), HEK293 cells were transfected with Effectene™ (Qiagen) and HepG2 cells were transfected with Fugene™ HD (Roche). […] For analysis of the various AnxA2 mutants in HEK293 cells, 24 h post-transfection, the cells were washed and then incubated for another 24 h in complete medium containing 50 μM of the proteasome inhibitor ALLN (Calbiochem). Stable transfectants of shRNA-AnxA2 were obtained in HuH7 cells following puromycin selection.
as §1

Nc1ncn([C@@H]2O[C@H](CO)[C@@H](O)[C@H]2O)c(=O)n1 [5-Azacytidine]
AnxA2 mRNA expression (AnxA2 [1]; HepG2, 10 μM, qPCR): 3 fold | AnxA2 protein level (AnxA2 [1]; HepG2, Western blot): highly increased | secreted form of PCSK9 by western blot (PCSK9; HepG2, 24 or 48 hours of treatment): barely detectable | mRNA level of PCSK9 (PCSK9; HepG2, qPCR): drastically decreased | LDLR expression at the protein level (LDLR [2]; HepG2, Western blot): increased expression | LDLR mRNA level (LDLR [2]; HepG2, qPCR): increased | HMG-CoA reductase mRNA level (HMG-CoA reductase): decreased | expression of Annexin II (Annexin II): induced an increase of expression

AnxA2-shRNA: 29mer pRS-shRNA silencing human AnxA2, GCATCAGCACTGAAGTCAGCCTTATCTGG (SEQ ID NO: 105)
knockdown of AnxA2 (AnxA2 [3]): 60-70% | reduction of the LDLR levels (LDLR [4]): 40-70% | levels of endogenous LDLR (LDLR [5]): None of these treatments affected the levels of endogenous LDLR
